In ChEMBL document CHEMBL1142649, “Asymmetric synthesis of novel tetrahydroquinoline derivatives with a sugar building block and their bioactivities” (Bioorg Med Chem Lett, 2005) one finds IC50 data, which are given here for six compounds.

In brackets after ≈: the same amount, converted by molar mass.

Assay [1] has as its system HeLa. The experiment in a line: Inhibitory concentration against human cervical carcinoma cell line at 48 hours. It is filed as functional, cell-based.
Assay [2] in a line: Inhibitory concentration against human esophagus cancer cell line at 72 hours. It is filed as functional, cell-based. The conditions noted are these: cancer cell lines.

`CC(=O)O[C@@H]1COC2C1OCC21Nc2ccc(C)cc2[C@]2(Nc3ccc(C)cc3)C3OC[C@@H](OC(C)=O)C3OC12` (some centres not stated): the concentration for half-maximal inhibition (IC50) worked out at 150 µg/mL (≈ 272 µM) in assay [1] and 135 µg/mL (≈ 245 µM) in assay [2].

As to `COc1ccc(N[C@]23c4cc(OC)ccc4NC4(COC5[C@H](O)CO[C@@H]54)C2OC2C3OC[C@H]2O)cc1` (some centres not stated), the results for the IC50 in assay [1] and in assay [2] were 648 µg/mL (≈ 1300 µM) and above 1000 µg/mL, respectively.

As for `O[C@@H]1COC2C1OCC21Nc2ccccc2[C@]2(Nc3ccccc3)C3OC[C@@H](O)C3OC12` (some centres not stated), the IC50 in assay [1] and in assay [2] was above 1000 µg/mL each time.

Take `Cc1ccc(N[C@]23c4cc(C)ccc4NC4(COC5C4OC[C@H]5O)C2OC2C3OC[C@H]2O)cc1` (some centres not stated): the IC50 in assay [1] was above 1000 µg/mL; in assay [2], 240 µg/mL (≈ 514 µM).

Consider `Oc1ccc(NC23c4cc(O)ccc4NC4(COC5C4OC[C@H]5O)C2OC2C3OC[C@H]2O)cc1` (some centres not stated), for which the figures for the IC50 in assay [1] and in assay [2] were above 1000 µg/mL and 78 µg/mL (≈ 166 µM), respectively.

As for `Cc1cccc(NC23c4ccc(C)cc4NC4(COC5C4OC[C@H]5O)C2O[C@H]2C3OC[C@H]2O)c1` (some centres not stated), the IC50 in assay [1] came out at 276 µg/mL (≈ 592 µM); in assay [2], 95 µg/mL (≈ 204 µM).
